Experimental data: patent US4394503A, “Cephalosporin derivatives” (priority 1981, dated 1983)
In brackets after ≈: the same amount, converted by molar mass. Structures can show the parent of a compound that is named as a salt. Where two headings read alike, the source gives them in different places.

What was measured:
B. fragilis A22533 = assay: MIC against selected test organisms (Table 2); format: cell-based; details: Bacteroides fragilis, A22533; Anaerobe, AMP-R; read-out: Minimum Inhibitory Concentration
S. aureus A9497 = assay: MIC against selected test organisms (Table 2); format: cell-based; details: Staphylococcus aureus, Gp-Ia, PC-S, read-out: Minimum Inhibitory Concentration
P. morganii A9553 = assay: MIC against selected test organisms (Table 2); format: cell-based; details: Morganella morganii, A9553; Gn-II, CET-R; read-out: Minimum Inhibitory Concentration
C. perfringens A9635 = assay: microbe, parasite or virus in culture; format: cell-based; details: Clostridium perfringens, A9635, read-out: Minimum Inhibitory Concentration
[1] = tested on: Cephalothin-resistant E. coli and Kl. pneumoniae (Gn-Ib); assay: In vitro antibacterial activity, two-fold agar dilution, Mueller-Hinton agar (Table 1), group Gn-Ib; format: cell-based, E. coli (3) and Kl. pneumoniae (3); details: Escherichia coli, read-out: Geometric Mean of MIC
[2] = tested on: Cephalothin-sensitive E. coli, Kl. pneumoniae and Pr. mirabilis (Gn-Ia); assay: In vitro antibacterial activity, two-fold agar dilution, Mueller-Hinton agar (Table 1), group Gn-Ia; format: cell-based; details: read-out: Geometric Mean of MIC
K. pneumoniae D11 = assay: MIC against selected test organisms (Table 2); format: cell-based; details: Klebsiella pneumoniae, D11; Gn-Ia, CET-S; read-out: Minimum Inhibitory Concentration
B. fragilis A22695 = assay: MIC against selected test organisms (Table 2); format: cell-based; details: Bacteroides fragilis, A22695; Anaerobe, AMP-R; read-out: Minimum Inhibitory Concentration
P. aeruginosa A15150 = assay: MIC against selected test organisms (Table 2); format: cell-based; details: Pseudomonas aeruginosa, A15150; Gn-III, CET-R; read-out: Minimum Inhibitory Concentration
P. aeruginosa A9843 [3] = assay: MIC against selected test organisms (Table 2); format: cell-based; details: Pseudomonas aeruginosa, A9843; Gn-III, CET-R; read-out: Minimum Inhibitory Concentration
E. cloacae A9656 = assay: MIC against selected test organisms (Table 2); format: cell-based; details: Enterobacter cloacae, Gn-II, CET-R, read-out: Minimum Inhibitory Concentration
S. aureus Smith [4] = assay: Therapeutic efficacy in experimentally infected mice (Table 5); format: in vivo; details: Staphylococcus aureus, im, 120 h; i.m., immediately after intraperitoneal challenge, 5 days observation; read-out: PD50 (median protective dose)
Procedure: (§1) The test compounds were administered intramuscularly immediately after the bacterial challenge.

P. aeruginosa A9843 [5] = assay: as above; format: in vivo; details: Pseudomonas aeruginosa, A9843, im, 120 h; i.m., immediately after intraperitoneal challenge, 5 days observation; read-out: PD50 (median protective dose)
Procedure: as §1

E. coli Juhl [6] = assay: as above; format: in vivo; details: Escherichia coli, im, 120 h; i.m., immediately after intraperitoneal challenge, 5 days observation; read-out: PD50 (median protective dose)
Procedure: as §1

E. coli Juhl [7] = assay: MIC against selected test organisms (Table 2); format: cell-based; details: Escherichia coli; Gn-Ia, CET-S; read-out: Minimum Inhibitory Concentration
Ps. aeruginosa (Gn-III) = assay: In vitro antibacterial activity, two-fold agar dilution, Mueller-Hinton agar (Table 1), group Gn-III; format: cell-based; details: Pseudomonas aeruginosa; read-out: Geometric Mean of MIC
P. acnes A21933 = assay: MIC against selected test organisms (Table 2); format: cell-based; details: Cutibacterium acnes, A21933; Anaerobe, CLDM-R; read-out: Minimum Inhibitory Concentration
S. aureus Smith [8] = assay: MIC against selected test organisms (Table 2); format: cell-based; details: Staphylococcus aureus; Gp-Ia, PC-S; read-out: Minimum Inhibitory Concentration
[9] = tested on: Pr. morganii, Ent. cloacae and Ser. marcescens (Gn-II); assay: In vitro antibacterial activity, two-fold agar dilution, Mueller-Hinton agar (Table 1), group Gn-II; format: cell-based, Pr. morganii (1), Ent. cloacae (2) and Ser. marcescens (2); details: read-out: Geometric Mean of MIC
S. aureus A15092 = assay: MIC against selected test organisms (Table 2); format: cell-based; details: Staphylococcus aureus, Gp-Ib, PC-R, read-out: Minimum Inhibitory Concentration
[10] = tested on: Penicillin-sensitive S. aureus (Gp-Ia); assay: In vitro antibacterial activity, two-fold agar dilution, Mueller-Hinton agar (Table 1), group Gp-Ia; format: cell-based; details: Staphylococcus aureus; read-out: Geometric Mean of MIC
B. fragilis A21900 = assay: MIC against selected test organisms (Table 2); format: cell-based; details: Bacteroides fragilis, A21900; Anaerobe, CET-S; read-out: Minimum Inhibitory Concentration
B. fragilis A22693 = assay: MIC against selected test organisms (Table 2); format: cell-based; details: Bacteroides fragilis, A22693; Anaerobe, CET-R; read-out: Minimum Inhibitory Concentration
E. coli A15148 = assay: MIC against selected test organisms (Table 2); format: cell-based; details: Escherichia coli, A15148; Gn-Ib, CET-R; read-out: Minimum Inhibitory Concentration
P. aeruginosa A20717 = assay: MIC against selected test organisms (Table 2); format: cell-based; details: Pseudomonas aeruginosa, A20717; Gn-III, CET-R; read-out: Minimum Inhibitory Concentration
P. mirabilis A9554 = assay: MIC against selected test organisms (Table 2); format: cell-based; details: Proteus mirabilis, A9554; Gn-Ia, CET-S; read-out: Minimum Inhibitory Concentration
S. marcescens A20019 = assay: MIC against selected test organisms (Table 2); format: cell-based; details: Serratia marcescens, A20019; Gn-II, CET-R; read-out: Minimum Inhibitory Concentration
B. fragilis A20928-1 = assay: MIC against selected test organisms (Table 2); format: cell-based; details: Bacteroides fragilis, A209281; Anaerobe, CET-S; read-out: Minimum Inhibitory Concentration
[11] = tested on: Penicillin-resistant S. aureus (Gp-Ib); assay: In vitro antibacterial activity, two-fold agar dilution, Mueller-Hinton agar (Table 1), group Gp-Ib; format: cell-based; details: Staphylococcus aureus; read-out: Geometric Mean of MIC
S. aureus BX-1633 = assay: MIC against selected test organisms (Table 2); format: cell-based; details: Staphylococcus aureus, BX1633; Gp-Ib, PC-R; read-out: Minimum Inhibitory Concentration
B. fragilis A22021 = assay: MIC against selected test organisms (Table 2); format: cell-based; details: Bacteroides fragilis, A22021; Anaerobe, CET-R; read-out: Minimum Inhibitory Concentration
K. pneumoniae A 9867 = assay: MIC against selected test organisms (Table 2); format: cell-based; details: Klebsiella pneumoniae, A9867; Gn-Ib, CET-R; read-out: Minimum Inhibitory Concentration
C. difficile A21675 = assay: MIC against selected test organisms (Table 2); format: cell-based; details: Clostridioides difficile, A21675; Anaerobe, CLDM-R; read-out: Minimum Inhibitory Concentration
B. fragilis Group III = assay: In vitro antianaerobic activity in GAM agar (Table 4); format: cell-based; details: read-out: Geometric Mean of MIC
B. fragilis Group I = assay: as above; format: cell-based; details: Bacteroides fragilis
B. fragilis Group II = assay: as above; format: cell-based; details: Bacteroides fragilis; read-out: Geometric Mean of MIC
[12] = tested on: Others Group IV (C. difficile, C. perfringens, P. acne and P. anaerobius); assay: microbe, parasite or virus in culture; format: cell-based; details: read-out: Geometric Mean of MIC, GAM agar, 1 strain each
[13] = prior-art filing; cited from earlier work

CSc1ccc[n+](CC2=C(C(=O)[O-])N3C(=O)C(NC(=O)/C(=N\OC(C)(C)C(=O)O)c4csc(N)n4)C3SC2)c1 (stereo not drawn) [Example 1, 7-[(Z)-2-(2-Aminothiazol-4-yl)-2-(2-carboxyprop-2-oxyimino)acetamido]-3-[(3-methylthiopyridinium)methyl]-3-cephem-4-carboxylate]
MIC (B. fragilis A22533): > 100 µg/mL | MIC (S. aureus A9497): 3.1 µg/mL (≈ 5.23 µM) | MIC (P. morganii A9553): 1.6 µg/mL (≈ 2.7 µM) | MIC (C. perfringens A9635): 25 µg/mL (≈ 42.2 µM) | MIC [1]: 1.1 µg/mL (≈ 1.86 µM) | MIC [2]: 0.11 µg/mL (≈ 0.186 µM) | MIC (K. pneumoniae D11): 0.4 µg/mL (≈ 0.675 µM) | MIC (B. fragilis A22695): 50 µg/mL (≈ 84.4 µM) | MIC (P. aeruginosa A15150): 1.6 µg/mL (≈ 2.7 µM) | MIC (P. aeruginosa A9843 [3]): 3.1 µg/mL (≈ 5.23 µM) | MIC (E. cloacae A9656): 0.4 µg/mL (≈ 0.675 µM) | ED50 (S. aureus Smith [4]): 6 mg/kg | ED50 (P. aeruginosa A9843 [5]): 12 mg/kg | ED50 (E. coli Juhl [6]): 0.46 mg/kg | MIC (E. coli Juhl [7]): 0.2 µg/mL (≈ 0.337 µM) | MIC (Ps. aeruginosa (Gn-III)): 3.5 µg/mL (≈ 5.91 µM) | MIC (P. acnes A21933): 1.6 µg/mL (≈ 2.7 µM) | MIC (S. aureus Smith [8]): 6.3 µg/mL (≈ 10.6 µM) | MIC [9]: 2.8 µg/mL (≈ 4.72 µM) | MIC (S. aureus A15092): 12.5 µg/mL (≈ 21.1 µM) | MIC [10]: 4.7 µg/mL (≈ 7.93 µM) | MIC (B. fragilis A21900): 6.3 µg/mL (≈ 10.6 µM) | MIC (B. fragilis A22693): 25 µg/mL (≈ 42.2 µM) | MIC (E. coli A15148): 0.4 µg/mL (≈ 0.675 µM) | MIC (P. aeruginosa A20717): 12.5 µg/mL (≈ 21.1 µM) | MIC (P. mirabilis A9554): 0.1 µg/mL (≈ 0.169 µM) | MIC (S. marcescens A20019): 0.2 µg/mL (≈ 0.337 µM) | MIC (B. fragilis A20928-1): 6.3 µg/mL (≈ 10.6 µM) | MIC [11]: 12.5 µg/mL (≈ 21.1 µM) | MIC (S. aureus BX-1633): 12.5 µg/mL (≈ 21.1 µM) | MIC (B. fragilis A22021): 25 µg/mL (≈ 42.2 µM) | MIC (K. pneumoniae A 9867): 3.1 µg/mL (≈ 5.23 µM) | MIC (C. difficile A21675): > 100 µg/mL

CSc1cccc[n+]1CC1=C(C(=O)[O-])N2C(=O)C(NC(=O)/C(=N\OC(C)(C)C(=O)O)c3csc(N)n3)C2SC1 (stereo not drawn) [Example 3, 7-[(Z)-2-(2-Aminothiazol-4-yl)-2-(2-carboxyprop-2-oxyimino)-acetamido]-3-[(2-methylthiopyridinium)methyl]-3-cephem-4-carboxylate]
MIC [1]: 2 µg/mL (≈ 3.37 µM) | MIC [2]: 0.11 µg/mL (≈ 0.186 µM) | MIC (Ps. aeruginosa (Gn-III)): 5.6 µg/mL (≈ 9.45 µM) | MIC [9]: 3.2 µg/mL (≈ 5.4 µM) | MIC [10]: 9.5 µg/mL (≈ 16 µM) | MIC [11]: 12.5 µg/mL (≈ 21.1 µM)

CCSc1cc[n+](CC2=C(C(=O)[O-])N3C(=O)C(NC(=O)/C(=N\OC(C)(C)C(=O)O)c4csc(N)n4)C3SC2)cc1 (stereo not drawn) [Example 4, 7-[(Z)-2-(2-Aminothiazol-4-yl)-2-(2-carboxyprop-2-oxyimino)acetamido]-3-[(4-ethylthiopyridinium)methyl]-3-cephem-4-carboxylate]
MIC (B. fragilis Group III): 100 µg/mL (≈ 165 µM) | MIC [1]: 1.3 µg/mL (≈ 2.14 µM) | MIC [2]: 0.087 µg/mL (≈ 0.143 µM) | MIC (B. fragilis Group I; read-out: Geometric Mean of MIC, GAM agar, Example 4, ceftazidime (mean of 3 experiments), nonlactamase-producing, ampicillin-sensitive, 3 strains): 2.5 µg/mL (≈ 4.12 µM) | MIC (Ps. aeruginosa (Gn-III)): 8.8 µg/mL (≈ 14.5 µM) | MIC [9]: 2.1 µg/mL (≈ 3.46 µM) | MIC [10]: 6.3 µg/mL (≈ 10.4 µM) | MIC (B. fragilis Group II): 12.5 µg/mL (≈ 20.6 µM) | MIC ([12]; Example 4, ceftazidime (mean of 3 experiments)): 8.9 µg/mL (≈ 14.7 µM) | MIC [11]: 12.5 µg/mL (≈ 20.6 µM)

CC(C)Sc1cc[n+](CC2=C(C(=O)[O-])N3C(=O)C(NC(=O)/C(=N\OC(C)(C)C(=O)O)c4csc(N)n4)C3SC2)cc1 (stereo not drawn) [Example 5, 7-[(Z)-2-(2-Aminothiazol-4-yl)-2-(2-carboxyprop-2-oxyimino)-acetamido]-3-[(4-isopropylthiopyridinium)methyl]-3-cephem-4-carboxylate]
MIC (B. fragilis Group III): > 100 µg/mL | MIC [1]: 1 µg/mL (≈ 1.61 µM) | MIC [2]: 0.11 µg/mL (≈ 0.177 µM) | MIC (B. fragilis Group I; read-out: Geometric Mean of MIC): 3.2 µg/mL (≈ 5.16 µM) | MIC (Ps. aeruginosa (Gn-III)): 12.5 µg/mL (≈ 20.1 µM) | MIC [9]: 2.4 µg/mL (≈ 3.87 µM) | MIC [10]: 4.7 µg/mL (≈ 7.57 µM) | MIC (B. fragilis Group II): 25 µg/mL (≈ 40.3 µM) | MIC ([12]; Example 5 ceftazidime (mean of 2 experiments)): 3.5 µg/mL (≈ 5.64 µM) | MIC [11]: 12.5 µg/mL (≈ 20.1 µM)

CC(C)(O/N=C(\C(=O)N[C@@H]1C(=O)N2C(C(=O)[O-])=C(C[n+]3ccccc3)CS[C@H]12)c1csc(N)n1)C(=O)O [bishydrochloride of ceftazidime]
storage stability [13]: good storage stability
